Experimental data: PMC5835975, “[^64Cu]NOTA-pentixather enables high resolution PET imaging of CXCR4 expression in a preclinical lymphoma model” (EJNMMI Radiopharmacy and Chemistry, 2017)
Where two headings read alike, the source gives them in different places. Where a SMILES comes first, the peptide text is derived from it. Side-chain parts run from the residue outwards. [ ]: non-standard residue; d: D form. The star is where a group is joined. NODAGA = O=C(O)CN1CCN(CC(=O)O)CCN(C(CCC(=O)*)C(=O)O)CC1; NOTA = O=C(O)CN1CCN(CC(=O)O)CCN(CC(=O)*)CC1; dTyr(3-I) = N[C@H](Cc1ccc(O)c(I)c1)C(=O)O; 2Nal = N[C@@H](Cc1ccc2ccccc2c1)C(=O)O; dNMeOrn = CN[C@H](CCCN)C(=O)O; 4Amb = NCc1ccc(C(=O)O)cc1

Key:
human CXCR4 = biological target: T1, human CXCR4 (Homo sapiens, UniProt P61073); assay: Competitive binding assay on Jurkat T-cell leukemia cells with [^125I]FC131 as radioligand; details: Jurkat cells 400.000 cells/sample, [^125I]FC131 radioligand, mean ± SD, min. three determinations
T1 construct: CXCR4-expressing Jurkat T-lymphocytes (4 × 10^5 cells per sample); endogenous in cells; host or cells: Jurkat T-cell leukemia cells
T1 sequence (P61073 whole entry): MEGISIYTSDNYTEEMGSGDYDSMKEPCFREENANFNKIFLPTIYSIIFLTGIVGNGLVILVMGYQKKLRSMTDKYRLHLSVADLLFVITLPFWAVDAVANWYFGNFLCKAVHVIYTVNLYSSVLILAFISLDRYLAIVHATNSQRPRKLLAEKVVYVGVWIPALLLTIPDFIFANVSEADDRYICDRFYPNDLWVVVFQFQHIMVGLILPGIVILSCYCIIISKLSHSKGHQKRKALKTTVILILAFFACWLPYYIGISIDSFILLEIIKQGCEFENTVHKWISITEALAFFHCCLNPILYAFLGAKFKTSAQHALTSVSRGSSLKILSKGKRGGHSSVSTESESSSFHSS
Procedure: The CXCR4 affinities of [^natCu]NOTA- and [^natCu]NODAGA-pentixather as well as of the corresponding metal free chelator-conjugated peptides were determined in a competitive binding assay using standard conditions (CXCR4-expressing Jurkat T-lymphocytes (4 × 10^5 cells per sample) and [^125I]FC131 as the radioligand (Poschenrieder et al. [2016a]; Wester et al. [2015]; Schottelius et al. [2015]; Poschenrieder et al. [2016b])) (Table 1). Data for [^natGa]pentixafor and FC131 are included as a reference. As already observed for [^natGa]pentixafor, metal complexation leads to enhanced CXCR4 affinity, both for [^natCu]NOTA-pentixather and for [^natCu]NODAGA-pentixather.
CXCR4 affinities were determined using Jurkat T-cell leukemia cells and [^125I]FC131 as the radioligand (Poschenrieder et al. [2016b]). Briefly, cells (4 × 10^5 cells per vial) were incubated with app. 0.1 nM of [^125I]FC131 in the presence of varying concentrations (10^−11 to 10^−5 M) of the respective peptide of interest (n = 3 samples/concentration) for 120 min at RT. After centrifugation and repeated washing steps, the amount of free and bound radioligand were quantified for each sample using a γ-counter, and IC50 values were calculated using GraphPad Prism 6.01 software.

[1] = format: physicochemical; details: buffer, 24 h, pH 2.5
Procedure: To investigate the in vitro stability of [^64Cu]NOTA-pentixather, the tracer was incubated both in human serum at 37 °C and in 0.1 M EDTA at pH = 2.5 and physiological pH (7.4) at RT for different time points up to 24 h (Fig. 7). [^64Cu]NOTA-pentixather remained stable over 24 h in human serum (>99% intact ^64Cu-chelate).
Fig. 7 In vitro stability of [^64Cu]NOTA-pentixather as a function of incubation time.
For challenging experiments, 4 MBq of [^64Cu]NOTA-pentixather were incubated in 0.1 M EDTA at different pH values (2.5 and 7.4) for a minimum of 24 h. At specific time points, samples were analyzed via radio-TLC using silica gel impregnated chromatography paper (Agilent Technologies, CA, USA) and 0.1 M phosphate buffer (pH = 7.4) containing 10 mM sodium EDTA as the mobile phase.

[2] = format: physicochemical; details: pH 7.4
Procedure: The lipophilicity and serum stability of [^64Cu]NOTA-pentixather were determined as described previously (Poschenrieder et al. [2016a]). Briefly, to a solution of app. 2 kBq of radiolabelled peptide in 500 μL of PBS (pH 7.4), 500 μL of octanol were added (n = 6). Vials were vortexed vigorously for 3 min. To achieve quantitative phase separation, the vials were centrifuged at 14,600 · g for 6 min in a Biofuge 15 (Heraeus Sepatech, Osterode, Germany). The activity concentrations in 100 μL samples of both the aqueous and the organic phase were measured in a gamma counter, and the log Pow was calculated.

[3] = tested on: Daudi xenograft-bearing CB-17 SCID mice; details: mouse, in vivo
Procedure: (§1) Biodistribution data of [^64Cu]NOTA-pentixather at 1.5 h p.i. (n = 5, black bars) and 24 h p.i. Given the fact that Jurkat cells, which are generally used for the determination of CXCR4 affinity, are not tumorigenic in mice and to ensure comparability of data with previous studies (Poschenrieder et al. [2016a]; Wester et al. [2015]; Schottelius et al. [2015]), the Daudi lymphoma model was also used in this study. […] While the tumor-to-background ratios for most tissues remain unchanged or decrease within the observation period, t/blood and t/intestine ratios increase 1.3 and 2.4 fold between 1.5 and 24 h p.i., respectively.
(§2) Fig. 3 Biodistribution of [^64Cu]NOTA-pentixather at 1.5 h (tracer only, black bars, n = 5) and 24 h p.i. (grey bars, n = 6) in Daudi xenograft-bearing CB-17 SCID mice. Mice were injected with 5.2 MBq [^64Cu]NOTA-pentixather (122 pmol/0.160 μg peptide; AS = 43 GBq/μmol). Non-specific tracer accumulation was determined by coinjection of 2 mg/kg AMD3100 (50 μg/mouse; white bars, n = 3)
(§3) For PET and biodistribution studies, an average of 5.2 MBq [^64Cu]NOTA-pentixather (200 μL in PBS, 122 pmol, 160 ng) with a SA of 43 GBq/μmol was injected intravenously into the tail vein of isofluorane anaesthesized female Daudi (human B-cell lymphoma) xenograft bearing CB17 SCID mice. […] PET imaging with [^64Cu]NOTA-pentixather under ‘tracer only’ (n = 2) as well as blocking conditions (coinjection of 2 mg/kg AMD3100, n = 1) was performed at three different time points (dynamic PET imaging for 1 h, followed by static image acquisition for 15 min after 3.5 and 24 h) using an Inveon Siemens μPET scanner. PET/CT images were reconstructed by a two-dimensional ordered subset expectation maximum (2D-OSEM) algorithm with no attenuation correction. Image analysis was performed using the Inveon software, and results were calculated as %ID/g. For biodistribution studies, the mice were sacrificed at 1.5 h (n = 5) and 24 h (n = 6) p.i., tissues and organs of interest were dissected, weighed, and counted for radioactivity in a γ-counter. The percentage of injected dose per gram of tissue (% ID/g) was calculated; data are presented as mean ± SD.

[4] = set-up: species or system mice; details: mouse, in vivo, iv
Procedure: as §1, §2, §3

IC50 (human CXCR4) [nM] | tracer remaining intact [1] | logP [2] | increase of t/blood ratio [3] [fold] | increase of t/intestine ratio [3] [fold] | tissue uptake at 1.5 h ([4]; Tumor uptake) [%ID/g] | tissue uptake at 1.5 h ([4]; accumulation in the intestines) [%ID/g] | tissue uptake at 1.5 h ([4]; accumulation in the liver) [%ID/g] | tissue uptake at 1.5 h ([4]; activity accumulation in the kidney) [%ID/g] | tissue uptake at 1.5 h ([4]; activity in blood) [%ID/g] | SMILES
64.9 ± 6.5 | – | – | – | – | – | – | – | – | – | CN1C(=O)[C@@H](Cc2ccc(O)c(I)c2)NC(=O)CNC(=O)[C@H](Cc2ccc3ccccc3c2)NC(=O)[C@H](CCCNC(=N)N)NC(=O)[C@H]1CCCNC(=O)c1ccc(CNC(=O)CCC(C(=O)O)N2CCN(CC(=O)O)CCN(CC(=O)O)CC2)cc1 (stereo partly shown) [NODAGA-pentixather] (cyclo([2Nal]G[dTyr(3-I)][dNMeOrn]([4Amb-NODAGA])R))
– | over 90% | -1.2 | 1.3 | 2.4 | 13.1 ± 1.5 | 5 ± 2.8 | 7.2 ± 1.1 | 3.8 ± 0.5 | 1.1 ± 0.2 | CN1C(=O)[C@@H](Cc2ccc(O)c(I)c2)NC(=O)CNC(=O)[C@H](Cc2ccc3ccccc3c2)NC(=O)[C@H](CCCNC(=N)N)NC(=O)[C@H]1CCCNC(=O)c1ccc(CNC(=O)CN2CCN(CC(=O)O)CCN(CC(=O)O)CC2)cc1 [[^64Cu]NOTA-pentixather, metal not drawn] (cyclo([dTyr(3-I)][dNMeOrn]([4Amb-NOTA])R[2Nal]G))
